Laboratory results reported in ChEMBL document CHEMBL4680133, “Novel nitroimidazole derivatives evaluated for their trypanocidal, cytotoxic, and genotoxic activities” (Eur J Med Chem, 2020).

What was measured:
[1] = system: Trypanosoma cruzi; assay: Antitrypanosomal activity against bloodstream form of Trypanosoma cruzi Y trypomastigotes infected in African green monkey Vero cells assessed as increase in parasite lysis measured after 24 hrs by Neubauer chamber method; type: functional, organism-based
[2] = system: Trypanosoma cruzi; assay: Antitrypanosomal activity against Trypanosoma cruzi Y axenic amastigotes infected in African green monkey Vero cells after 24 hrs by MTT assay; type: functional, organism-based
[3] = Selectivity index, ratio of GI50 for human HepG2 cells assessed as reduction in cell viability measured after 24 hrs by WST1 assay to IC50 for antitrypanosomal activity against bloodstream form of Trypanosoma cruzi Y trypomastigotes infected in African green monkey Vero cells; type: toxicity; conditions: read-out: Selectivity Index
[4] = Selectivity index, ratio of GI50 for mouse RAW264.7 cells assessed as reduction in cell viability measured after 24 hrs by WST1 assay to IC50 for antitrypanosomal activity against Trypanosoma cruzi Y axenic amastigotes infected in African green monkey Vero cells; type: toxicity; conditions: read-out: Selectivity Index
[5] = Selectivity index, ratio of GI50 for mouse RAW264.7 cells assessed as reduction in cell viability measured after 24 hrs by WST1 assay to IC50 for antitrypanosomal activity against bloodstream form of Trypanosoma cruzi Y trypomastigotes infected in African green monkey Vero cells; type: toxicity; conditions: read-out: Selectivity Index
[6] = Cytotoxicity against human HepG2 cells assessed as reduction in cell viability measured after 24 hrs by WST1 assay; type: cell-based
[7] = Cytotoxicity against mouse RAW264.7 cells assessed as reduction in cell viability measured after 24 hrs by WST1 assay; type: cell-based
[8] = system: RAW264.7; assay: Cytotoxicity against mouse RAW264.7 cells at 18.8 to 376 uM measured after 24 hrs by LDH assay; type: cell-based; conditions: raw264.7, 24 h, dose 18.8-376 µM
[9] = system: HepG2; assay: Cytotoxicity against human HepG2 cells at 376 uM measured after 24 hrs by LDH assay; type: cell-based; conditions: hepg2, 24 h
[10] = Selectivity index, ratio of GI50 for human HepG2 cells assessed as reduction in cell viability measured after 24 hrs by WST1 assay to IC50 for antitrypanosomal activity against Trypanosoma cruzi Y axenic amastigotes infected in African green monkey Vero cells; type: toxicity; conditions: read-out: Selectivity Index
[11] = Mutagenicity in Salmonella typhimurium TA97 measured after 20 mins in absence of S9 fraction by microsome assay; type: toxicity; conditions: salmonella enterica subsp. enterica serovar typhimurium, microsomes, dose 5-100 µg
[12] = Mutagenicity in Salmonella typhimurium TA97 measured after 20 mins in presence of S9 fraction by microsome assay; type: toxicity, subcellular; conditions: salmonella enterica subsp. enterica serovar typhimurium, s9, 20 min, dose 5-100 µg
[13] = Mutagenicity in Salmonella typhimurium TA98 measured after 20 mins in absence of S9 fraction by microsome assay; type: toxicity; conditions: salmonella enterica subsp. enterica serovar typhimurium, microsomes, dose 5-100 µg
[14] = Mutagenicity in Salmonella typhimurium TA98 measured after 20 mins in presence of S9 fraction by microsome assay; type: toxicity, subcellular; conditions: salmonella enterica subsp. enterica serovar typhimurium, s9, 20 min, dose 5-100 µg
[15] = Mutagenicity in Salmonella typhimurium TA100 measured after 20 mins in absence of S9 fraction by microsome assay; type: toxicity; conditions: salmonella enterica subsp. enterica serovar typhimurium, microsomes, dose 5-100 µg
[16] = Mutagenicity in Salmonella typhimurium TA100 measured after 20 mins in presence of S9 fraction by microsome assay; type: toxicity, subcellular; conditions: salmonella enterica subsp. enterica serovar typhimurium, s9, 20 min, dose 5-100 µg
[17] = Mutagenicity in Salmonella typhimurium TA102 measured after 20 mins in absence of S9 fraction by microsome assay; type: toxicity; conditions: salmonella enterica subsp. enterica serovar typhimurium, microsomes, dose 5-100 µg
[18] = Mutagenicity in Salmonella typhimurium TA102 measured after 20 mins in presence of S9 fraction by microsome assay; type: toxicity, subcellular; conditions: salmonella enterica subsp. enterica serovar typhimurium, s9, 20 min, dose 5-100 µg
[19] = Mutagenicity in Salmonella typhimurium TA97 assessed as revertant/ug measured after 20 mins in absence of S9 fraction by microsome assay; type: toxicity; conditions: salmonella enterica subsp. enterica serovar typhimurium, microsomes
[20] = Mutagenicity in Salmonella typhimurium TA97 assessed as revertant/ug measured after 20 mins in presence of S9 fraction by microsome assay; type: toxicity, subcellular; conditions: salmonella enterica subsp. enterica serovar typhimurium, s9, 20 min
[21] = Mutagenicity in Salmonella typhimurium TA100 assessed as revertant/ug measured after 20 mins in absence of S9 fraction by microsome assay; type: toxicity; conditions: salmonella enterica subsp. enterica serovar typhimurium, microsomes
[22] = Mutagenicity in Salmonella typhimurium TA100 assessed as revertant/ug measured after 20 mins in presence of S9 fraction by microsome assay; type: toxicity, subcellular; conditions: salmonella enterica subsp. enterica serovar typhimurium, s9, 20 min
[23] = Mutagenicity in Salmonella typhimurium YG1021 at 5 to 100 ug/plate after 20 mins by microsome assay; type: toxicity; conditions: salmonella enterica subsp. enterica serovar typhimurium, microsomes
[24] = Mutagenicity in Salmonella typhimurium YG1024 at 5 to 100 ug/plate after 20 mins by microsome assay; type: toxicity; conditions: salmonella enterica subsp. enterica serovar typhimurium, microsomes, dose 5-100 µg
[25] = Toxicity in Salmonella typhimurium YG1021 at 5 to 100 ug/plate after 20 mins by colony counting method; conditions: salmonella enterica subsp. enterica serovar typhimurium, dose 5-100 µg
[26] = Toxicity in Salmonella typhimurium YG1024 at 5 to 100 ug/plate after 20 mins by colony counting method; conditions: salmonella enterica subsp. enterica serovar typhimurium, dose 5-100 µg
[27] = system: RAW264.7; assay: Genotoxicity in mouse RAW264.7 cells assessed as mitotic index at 188 uM measured after 24 hrs by micronucleus test (reference value: 40 to 249); type: toxicity, cell-based; conditions: raw264.7, 24 h
[28] = system: RAW264.7; assay: Genotoxicity in mouse RAW264.7 cells assessed as mitotic index at 376 uM measured after 24 hrs by micronucleus test (reference value: 40 to 249); type: toxicity, cell-based; conditions: raw264.7, 24 h
[29] = system: RAW264.7; assay: Genotoxicity in mouse RAW264.7 cells assessed as mitotic index at 1880 uM measured after 24 hrs by micronucleus test (reference value: 40 to 249); type: toxicity, cell-based; conditions: raw264.7, 24 h
[30] = system: RAW264.7; assay: Genotoxicity in mouse RAW264.7 cells assessed as mitotic index at 3760 uM measured after 24 hrs by micronucleus test (reference value: 40 to 249); type: toxicity, cell-based; conditions: raw264.7, 24 h
[31] = system: RAW264.7; assay: Genotoxicity in mouse RAW264.7 cells assessed as number of micronucleated cells at 188 uM measured after 24 hrs by micronucleus test (reference value: 12 to 15); type: toxicity, cell-based; conditions: raw264.7, 24 h
[32] = system: RAW264.7; assay: Genotoxicity in mouse RAW264.7 cells assessed as number of micronucleated cells at 376 uM measured after 24 hrs by micronucleus test (reference value: 12 to 15); type: toxicity, cell-based; conditions: raw264.7, 24 h
[33] = system: RAW264.7; assay: Genotoxicity in mouse RAW264.7 cells assessed as number of micronucleated cells at 1880 uM measured after 24 hrs by micronucleus test (reference value: 12 to 15); type: toxicity, cell-based; conditions: raw264.7, 24 h
[34] = system: RAW264.7; assay: Genotoxicity in mouse RAW264.7 cells assessed as number of micronucleated cells at 3760 uM measured after 24 hrs by micronucleus test (reference value: 12 to 15); type: toxicity, cell-based; conditions: raw264.7, 24 h
[35] = Genotoxicity in mouse RAW264.7 cells assessed as survival at 188 uM measured after 24 hrs by micronucleus test (reference value: 100%); type: toxicity, cell-based; conditions: read-out: Survival
[36] = Genotoxicity in mouse RAW264.7 cells assessed as survival at 376 uM measured after 24 hrs by micronucleus test (reference value: 100%); type: toxicity, cell-based; conditions: read-out: Survival
[37] = Genotoxicity in mouse RAW264.7 cells assessed as survival at 1880 uM measured after 24 hrs by micronucleus test (reference value: 100%); type: toxicity, cell-based; conditions: read-out: Survival
[38] = Genotoxicity in mouse RAW264.7 cells assessed as survival at 3760 uM measured after 24 hrs by micronucleus test (reference value: 100%); type: toxicity, cell-based; conditions: read-out: Survival
[39] = system: HepG2; assay: Genotoxicity in human HepG2 assessed as mitotic index at 188 uM measured after 24 hrs by micronucleus test (reference value: 61 to 108); type: toxicity, cell-based; conditions: hepg2, 24 h
[40] = system: HepG2; assay: Genotoxicity in human HepG2 assessed as mitotic index at 376 uM measured after 24 hrs by micronucleus test (reference value: 61 to 108); type: toxicity, cell-based; conditions: hepg2, 24 h
[41] = system: HepG2; assay: Genotoxicity in human HepG2 assessed as mitotic index at 1880 uM measured after 24 hrs by micronucleus test (reference value: 61 to 108); type: toxicity, cell-based; conditions: hepg2, 24 h
[42] = system: HepG2; assay: Genotoxicity in human HepG2 assessed as mitotic index at 3760 uM measured after 24 hrs by micronucleus test (reference value: 61 to 108); type: toxicity, cell-based; conditions: hepg2, 24 h
[43] = system: HepG2; assay: Genotoxicity in human HepG2 assessed as number of micronucleated cells at 188 uM measured after 24 hrs by micronucleus test (reference value: 14 to 18); type: toxicity, cell-based; conditions: hepg2, 24 h
[44] = system: HepG2; assay: Genotoxicity in human HepG2 assessed as number of micronucleated cells at 376 uM measured after 24 hrs by micronucleus test (reference value: 14 to 18); type: toxicity, cell-based; conditions: hepg2, 24 h
[45] = system: HepG2; assay: Genotoxicity in human HepG2 assessed as number of micronucleated cells at 1880 uM measured after 24 hrs by micronucleus test (reference value: 14 to 18); type: toxicity, cell-based; conditions: hepg2, 24 h
[46] = system: HepG2; assay: Genotoxicity in human HepG2 assessed as number of micronucleated cells at 3760 uM measured after 24 hrs by micronucleus test (reference value: 14 to 18); type: toxicity, cell-based; conditions: hepg2, 24 h
[47] = Genotoxicity in human HepG2 assessed as survival at 188 uM measured after 24 hrs by micronucleus test (reference value: 100%); type: toxicity, cell-based; conditions: HepG2 cells, read-out: Survival
[48] = Genotoxicity in human HepG2 assessed as survival at 376 uM measured after 24 hrs by micronucleus test (reference value: 100%); type: toxicity, cell-based; conditions: HepG2 cells, read-out: Survival
[49] = Genotoxicity in human HepG2 assessed as survival at 1880 uM measured after 24 hrs by micronucleus test (reference value: 100%); type: toxicity, cell-based; conditions: HepG2 cells, read-out: Survival
[50] = Genotoxicity in human HepG2 assessed as survival at 3760 uM measured after 24 hrs by micronucleus test (reference value: 100%); type: toxicity, cell-based; conditions: HepG2 cells, read-out: Survival

COC(=O)c1cn(-c2c([N+](=O)[O-])ncn2C)nn1
IC50 [1]: 31.3 µM

CCOC(=O)c1cn(-c2c([N+](=O)[O-])ncn2C)nn1
IC50 [1]: 45.3 µM
IC50 [2]: 393 µM
selectivity ratio at 24 h [3]: > 8.3
selectivity ratio at 24 h [4]: > 0.95
selectivity ratio at 24 h [5]: > 8.3
GI50 at 24 h [6]: > 376 µM
GI50 at 24 h [7]: > 376 µM
Activity [8]: Non-Toxic
Activity [9]: Toxic
selectivity ratio at 24 h [10]: > 0.95
Activity [11]: Toxic
Activity [12]: Toxic
Activity [13]: Non-Toxic
Activity [14]: Non-Toxic
Activity [15]: Toxic
Activity [16]: Toxic
Activity [17]: Toxic
Activity [18]: Toxic
Activity [19]: 2.19 revertants/µg
Activity [20]: 0.714 µg
Activity [21]: 3.54 revertants/µg
Activity [22]: 3.36 revertants/µg
Activity [23]: Non-Toxic
Activity [24]: Non-Toxic
Activity [25]: Toxic
Activity [26]: Toxic
Activity_index [27]: 58
Activity_index [28]: 80
Activity_index [29]: 100
Activity_index [30]: 78
Activity [31]: 11
Activity [32]: 10
Activity [33]: 13
Activity [34]: 13
viability at 24 h, 188 µM [35]: 99%
viability at 24 h, 376 µM [36]: 99%
viability at 24 h, 1880 µM [37]: 95%
viability at 24 h, 3760 µM [38]: 90%
Activity_index [39]: 55
Activity_index [40]: 50
Activity_index [41]: 60
Activity_index [42]: 52
Activity [43]: 17
Activity [44]: 21
Activity [45]: 32
Activity [46]: 35
viability at 24 h, 188 µM [47]: 99%
viability at 24 h, 376 µM [48]: 99%
viability at 24 h, 1880 µM [49]: 97%
viability at 24 h, 3760 µM [50]: 90%

CCCCCc1cn(-c2c([N+](=O)[O-])ncn2C)nn1
IC50 [1]: 54.3 µM
